# Assay results taken from patent publication US20160264593A1 (priority 2013, published 2016).
# “And” between values parts separate entries of the source, which are not always exact repeats. Equal values may be shown once. “Also recorded” adds a separate entry of the source.
# Test: Pharmacokinetic study of 100 (and metabolite endothal) in SD rats, iv; plasma, liver, brain
# Conditions: for Endothal brain concentration / Endothal liver concentration / Endothal plasma concentration / concentration at 0.25 h / concentration at 1 h / concentration at 2 h / concentration at 10 h / concentration at 24 h / concentration at 6 h: SD rats; for AUCINF / AUClast / Cmax / Tmax / concentration at 0.25 h / concentration at 1 h / concentration at 2 h / concentration at 10 h / concentration at 24 h / concentration at 6 h: rat, in vivo, iv; for concentration at 0.25 h / concentration at 1 h / concentration at 2 h / concentration at 10 h / concentration at 24 h / concentration at 6 h: Endothal liver concentration
# Method: 100 was administrated via iv route at 0.5, 1.0 and 1.5 mg/kg into SD rats. The blood, liver and brain tissue samples were collected at predetermined times from rats.
# Twelve (12) female SD rats per group were dosed by iv with 100. The rats were fasted overnight prior to dosing, with free access to water. Foods were withheld for 2 hours post-dose. Blood, liver and brain tissue samples in two animals each group were collected at each time point, within 10% of the scheduled time for each time point. Two extra animals were used for analytic method development. Blood (>0.3 mL) were collected via aorta abdominalis in anaesthetic animalsinto tubes containing heparin at 15 min, 1, 2, 6, 10 and 24 hours after iv administration. Liver and brain tissues were collected immediately after animal death. The liver and brain tissues were excised and rinsed with cold saline to avoid blood residual. Upon collection, each sample was placed on ice and the blood samples were subsequently centrifuged (4° C., 11000 rpm, 5 min) to separate plasma. The obtained plasma, liver and brain tissue samples were stored at −70° C. until LC-MS/MS analysis.
# AUC0-∞ (AUC/NF) is the area under the plasma concentration-time curve with last concentration extrapolated based on the elimination rate constant.
# [1] = 100 iv 0.5 mg/kg, 24 hr, individual
structure (smiles),measurement,setting,value
"O=C(O)C1C2CCC(O2)C1C(=O)O (stereo not shown) [Endothal, 7-oxabicyclo[2.2.1]heptane-2,3-dicarboxylic acid]",Endothal brain concentration,"100 iv 0.5 mg/kg, 0.25 hr, individual",BLQ
same,Endothal liver concentration,"100 iv 0.5 mg/kg, 0.25 hr, individual, 0.5 mg/kg",382 ng/g
same,Endothal brain concentration,"100 iv 0.5 mg/kg, 0.25 hr, mean",BLQ
same,Endothal brain concentration,"100 iv 0.5 mg/kg, 1 hr, individual",BLQ
same,Endothal liver concentration,"100 iv 0.5 mg/kg, 1 hr, individual, 0.5 mg/kg",131 ng/g
same,Endothal brain concentration,"100 iv 0.5 mg/kg, 1 hr, mean",BLQ
same,Endothal brain concentration,"100 iv 0.5 mg/kg, 2 hr, individual",BLQ
same,Endothal liver concentration,"100 iv 0.5 mg/kg, 2 hr, individual, 0.5 mg/kg",273 ng/g
same,Endothal brain concentration,"100 iv 0.5 mg/kg, 2 hr, mean",BLQ
same,Endothal brain concentration,"100 iv 0.5 mg/kg, 6 hr, individual",BLQ
same,Endothal plasma concentration,"100 iv 0.5 mg/kg, 6 hr, individual, 0.5 mg/kg",BLQ
same,Endothal brain concentration,"100 iv 0.5 mg/kg, 6 hr, mean",BLQ
same,Endothal brain concentration,"100 iv 0.5 mg/kg, 10 hr, individual",BLQ
same,Endothal brain concentration,"100 iv 0.5 mg/kg, 10 hr, mean",BLQ
same,Endothal brain concentration,[1],BLQ
same,Endothal plasma concentration,[1],BLQ
same,Endothal liver concentration,"100 iv 0.5 mg/kg, 24 hr, individual, 0.5 mg/kg",36.4 ng/g
same,Endothal brain concentration,"100 iv 0.5 mg/kg, 24 hr, mean",BLQ
same,Endothal plasma concentration,"100 iv 0.5 mg/kg, 24 hr, mean",BLQ
same,Endothal brain concentration,"100 iv 1.0 mg/kg, 0.25 hr, individual",BLQ
same,Endothal liver concentration,"100 iv 1.0 mg/kg, 0.25 hr, individual, 1 mg/kg",1320 ng/g
same,Endothal brain concentration,"100 iv 1.0 mg/kg, 0.25 hr, mean",BLQ
same,Endothal brain concentration,"100 iv 1.0 mg/kg, 1 hr, individual",BLQ
same,Endothal liver concentration,"100 iv 1.0 mg/kg, 1 hr, individual, 1 mg/kg",1380 ng/g and 618 ng/g
same,Endothal brain concentration,"100 iv 1.0 mg/kg, 1 hr, mean",BLQ
same,Endothal brain concentration,"100 iv 1.0 mg/kg, 2 hr, individual",BLQ
same,Endothal liver concentration,"100 iv 1.0 mg/kg, 2 hr, individual, 1 mg/kg",1530 ng/g and 542 ng/g
same,Endothal brain concentration,"100 iv 1.0 mg/kg, 2 hr, mean",BLQ
same,Endothal brain concentration,"100 iv 1.0 mg/kg, 6 hr, individual",BLQ
same,Endothal liver concentration,"100 iv 1.0 mg/kg, 6 hr, individual, 1 mg/kg",241 ng/g
same,Endothal brain concentration,"100 iv 1.0 mg/kg, 6 hr, mean",BLQ
same,Endothal brain concentration,"100 iv 1.0 mg/kg, 10 hr, individual",BLQ
same,Endothal liver concentration,"100 iv 1.0 mg/kg, 10 hr, individual, 1 mg/kg",94.2 ng/g
same,Endothal brain concentration,"100 iv 1.0 mg/kg, 10 hr, mean",BLQ
same,Endothal brain concentration,"100 iv 1.0 mg/kg, 24 hr, individual",BLQ
same,Endothal liver concentration,"100 iv 1.0 mg/kg, 24 hr, individual, 1 mg/kg",115 ng/g
same,Endothal brain concentration,"100 iv 1.0 mg/kg, 24 hr, mean",BLQ
same,Endothal brain concentration,"100 iv 1.5 mg/kg, 0.25 hr, individual",BLQ
same,Endothal liver concentration,"100 iv 1.5 mg/kg, 0.25 hr, individual, 1.5 mg/kg",2160 ng/g
same,Endothal brain concentration,"100 iv 1.5 mg/kg, 0.25 hr, mean",BLQ
same,Endothal brain concentration,"100 iv 1.5 mg/kg, 1 hr, individual",BLQ
same,Endothal liver concentration,"100 iv 1.5 mg/kg, 1 hr, individual, 1.5 mg/kg",2976 ng/g
same,Endothal brain concentration,"100 iv 1.5 mg/kg, 1 hr, mean",BLQ
same,Endothal brain concentration,"100 iv 1.5 mg/kg, 2 hr, individual",BLQ
same,Endothal liver concentration,"100 iv 1.5 mg/kg, 2 hr, individual, 1.5 mg/kg",2226 ng/g
same,Endothal brain concentration,"100 iv 1.5 mg/kg, 2 hr, mean",BLQ
same,Endothal brain concentration,"100 iv 1.5 mg/kg, 6 hr, individual",BLQ
same,Endothal liver concentration,"100 iv 1.5 mg/kg, 6 hr, individual, 1.5 mg/kg",1326 ng/g
same,Endothal brain concentration,"100 iv 1.5 mg/kg, 6 hr, mean",BLQ
same,Endothal brain concentration,"100 iv 1.5 mg/kg, 10 hr, individual",BLQ
same,Endothal liver concentration,"100 iv 1.5 mg/kg, 10 hr, individual, 1.5 mg/kg",137 ng/g and 329 ng/g
same,Endothal brain concentration,"100 iv 1.5 mg/kg, 10 hr, mean",BLQ
same,Endothal brain concentration,"100 iv 1.5 mg/kg, 24 hr, individual",BLQ
same,Endothal liver concentration,"100 iv 1.5 mg/kg, 24 hr, individual, 1.5 mg/kg",52.1 ng/g
same,Endothal brain concentration,"100 iv 1.5 mg/kg, 24 hr, mean",BLQ
same,endothal detectable in brain samples,"after single iv 100 at 0.5, 1.0 and 1.5 mg/kg",not detectable; also recorded: undetectable
same,AUCINF,"female, SD, 0.5 mg/kg",828 ng·h/mL
same,AUClast,"female, SD, 0.5 mg/kg",546 ng·h/mL
same,Cmax,"female, SD, 0.5 mg/kg",577 ng/mL
same,Tmax,"female, SD, 0.5 mg/kg",15 min
same,concentration at 0.25 h,"female, SD, 0.5 mg/kg, 100 iv 0.5 mg/kg, 0.25 hr, individual",316 ng/g
same,concentration at 0.25 h,"female, SD, 0.5 mg/kg, 100 iv 0.5 mg/kg, 0.25 hr, mean",349 ng/g
same,concentration at 1 h,"female, SD, 0.5 mg/kg, 100 iv 0.5 mg/kg, 1 hr, individual",256 ng/g
same,concentration at 1 h,"female, SD, 0.5 mg/kg, 100 iv 0.5 mg/kg, 1 hr, mean",194 ng/g
same,concentration at 2 h,"female, SD, 0.5 mg/kg, 100 iv 0.5 mg/kg, 2 hr, individual",168 ng/g
same,concentration at 2 h,"female, SD, 0.5 mg/kg, 100 iv 0.5 mg/kg, 2 hr, mean",220 ng/g
same,concentration at 10 h,"female, SD, 0.5 mg/kg, 100 iv 0.5 mg/kg, 10 hr, mean",124 ng/g
same,concentration at 24 h,"female, SD, 0.5 mg/kg, 100 iv 0.5 mg/kg, 24 hr, individual",32 ng/g
same,concentration at 24 h,"female, SD, 0.5 mg/kg, 100 iv 0.5 mg/kg, 24 hr, mean",34.2 ng/g
same,AUCINF,"female, SD, 1 mg/kg",2750 ng·h/mL
same,AUClast,"female, SD, 1 mg/kg",2487 ng·h/mL
same,Tmax,"female, SD, 1 mg/kg",15 min
same,concentration at 0.25 h,"female, SD, 1 mg/kg, 100 iv 1.0 mg/kg, 0.25 hr, individual",768 ng/g
same,concentration at 0.25 h,"female, SD, 1 mg/kg, 100 iv 1.0 mg/kg, 0.25 hr, mean",1040 ng/g
same,concentration at 1 h,"female, SD, 1 mg/kg, 100 iv 1.0 mg/kg, 1 hr, mean",999 ng/g
same,concentration at 2 h,"female, SD, 1 mg/kg, 100 iv 1.0 mg/kg, 2 hr, mean",1040 ng/g
same,concentration at 6 h,"female, SD, 1 mg/kg, 100 iv 1.0 mg/kg, 6 hr, individual",298 ng/g
same,concentration at 6 h,"female, SD, 1 mg/kg, 100 iv 1.0 mg/kg, 6 hr, mean",270 ng/g
same,concentration at 10 h,"female, SD, 1 mg/kg, 100 iv 1.0 mg/kg, 10 hr, individual",151 ng/g
same,concentration at 10 h,"female, SD, 1 mg/kg, 100 iv 1.0 mg/kg, 10 hr, mean",123 ng/g
same,concentration at 24 h,"female, SD, 1 mg/kg, 100 iv 1.0 mg/kg, 24 hr, individual",66.6 ng/g
same,concentration at 24 h,"female, SD, 1 mg/kg, 100 iv 1.0 mg/kg, 24 hr, mean",90.8 ng/g
same,AUCINF,"female, SD, 1.5 mg/kg",4730 ng·h/mL
same,AUClast,"female, SD, 1.5 mg/kg",4476 ng·h/mL
same,Tmax,"female, SD, 1.5 mg/kg",15 min
same,concentration at 0.25 h,"female, SD, 1.5 mg/kg, 100 iv 1.5 mg/kg, 0.25 hr, individual",2300 ng/g
same,concentration at 0.25 h,"female, SD, 1.5 mg/kg, 100 iv 1.5 mg/kg, 0.25 hr, mean",2230 ng/g
same,concentration at 1 h,"female, SD, 1.5 mg/kg, 100 iv 1.5 mg/kg, 1 hr, individual",2870 ng/g
same,concentration at 1 h,"female, SD, 1.5 mg/kg, 100 iv 1.5 mg/kg, 1 hr, mean",2920 ng/g
same,concentration at 2 h,"female, SD, 1.5 mg/kg, 100 iv 1.5 mg/kg, 2 hr, individual",2950 ng/g
same,concentration at 2 h,"female, SD, 1.5 mg/kg, 100 iv 1.5 mg/kg, 2 hr, mean",2590 ng/g
same,concentration at 6 h,"female, SD, 1.5 mg/kg, 100 iv 1.5 mg/kg, 6 hr, individual",1690 ng/g
same,concentration at 6 h,"female, SD, 1.5 mg/kg, 100 iv 1.5 mg/kg, 6 hr, mean",1510 ng/g
same,concentration at 10 h,"female, SD, 1.5 mg/kg, 100 iv 1.5 mg/kg, 10 hr, mean",233 ng/g
same,concentration at 24 h,"female, SD, 1.5 mg/kg, 100 iv 1.5 mg/kg, 24 hr, individual",75 ng/g
same,concentration at 24 h,"female, SD, 1.5 mg/kg, 100 iv 1.5 mg/kg, 24 hr, mean",63.5 ng/g
same,Cmax,"female, Sprague-Dawley, 1.5 mg/kg",349 to 2960 ng/g
same,AUCINF,0.5 mg/kg,3095 ng·h/g
same,AUClast,0.5 mg/kg,2598 ng·h/g
same,AUCINF,1 mg/kg,7370 ng·h/g
same,AUClast,1 mg/kg,6673 ng·h/g
same,AUCINF,1.5 mg/kg,18850 ng·h/g
same,AUClast,1.5 mg/kg,18434 ng·h/g
